Source: patent publication US8779156B2, “Analogues for the treatment or prevention of flavivirus infections” (Vertex Pharmaceuticals Incorporated, priority 2010, dated 2014)
pEC50: −log10 of the molar value.

Test system: sub-genomic HCV replicon of genotype 1a (cell line W11.8)
Assay: Activity determination using the ELISA and the sub-genomic replicon 1a cell line (NS5A protein level)
Assay type: cell-based
Conditions: Hepatitis C virus
From the text: Activity Determination Using the ELISA and the Sub-Genomic Replicon 1a Cell Line
The cell line W11.8 containing the sub-genomic HCV replicon of genotype 1a is used to determine the potency of the drugs. The RNA replication in presence of different drug concentrations is indirectly measured in this cell line by the level of NS5A protein content upon drug treatment for four days. It is shown that the level of the NS5A protein correlates well with the level of HCV RNA in the replicon cell line. Cells are split twice a week in order to keep the confluence state below 85% of the culture flask surface area. The culture media used for cell passaging consists of DMEM-10% foetal bovine serum with 100 UI/mL penicillin, 100 μg/mL streptomycin, 2 mM glutamine, 1 mM sodium pyruvate, non-essential amino acids (1×) and 600 μg/mL of G418 final concentrations. Monolayer of the W11.8 cells is trypsinized and cells are counted. Cells are diluted at 50,000 cells/mL with complete DMEM without G418, then approximately 5,000 viable cells (100 μL) are plated per well in a white opaque 96-well microtiter plate. After an incubation period of 2-4 hours at 37° C. in a 5% CO2 incubator, compounds are added at various concentrations. Drugs are resuspended in DMSO at a stock concentration of 10 mM. Then, drugs are serially diluted at twice the final concentration in the same medium. One volume (100 μL) of each drug dilution is then added to each well that contains cells. A control compound is used as an internal standard for each plate assay. Sixteen wells are used as control (0% inhibition) without drug. […] Values from 100% inhibited wells were averaged and used as the background value. Cells are further incubated for four days at 37° C. in a 5% CO2 incubator. Following the incubation time of four days, the media is removed and wells are washed once with 150 μL of PBS at room temperature for five minutes. Cells are then fixed for five minutes using 150 μL per well of cold (−20° C.) fixative solution (50% methanol/50% acetone mix). Cells are then washed twice with 150 μL of PBS (phosphate buffered saline) per well, following the addition of 150 μL of blocking solution, cells are incubated for one hour at 37° C. to block non-specific sites. The blocking solution is removed and cells are washed twice with 150 μL of PBS per well and once with 150 μL of PBSTS solution (PBS/0.1% Triton X-100/0.02% SDS) per well. […] Then, substrate solution (100 μl, SuperSignal ELISA Pico Chemiluminescent Substrate, Fisher Cat. No. 37069) is added in each well and plates are incubated 60 minutes at room temperature prior to reading the luminescence (relative light units) on the Analyst HT plate reader. The percentage of inhibition at each drug concentration tested (in duplicate) is calculated.

Structure (SMILES) | IC50 [pM]
COC(=O)N[C@H](C(=O)N1CCC[C@H]1c1ncc(-c2ccc(-c3ccc(-c4ccc5[nH]c([C@@H]6CCCN6C(=O)[C@@H](NC(=O)OC)C(C)C)nc5c4)cc3)cc2)[nH]1)C(C)C [Compound 4, ((S)-1-{(S)-2-[5-(4′-{2-[(S)-1-((S)-2-Methoxycarbonylamino-3-methyl-butyryl)-pyrrolidin-2-yl]-3H-benzoimidazol-5-yl}-biphenyl-4-yl)-1H-imidazol-2-yl]-pyrrolidine-1-carbonyl}-2-methyl-propyl)-carbamic acid methyl ester] | 140

Test system: HCV (1b) replicon, Huh-ET cells
Assay: Cell-based luciferase reporter HCV (1b) RNA replication assay
Conditions: Hepatitis C virus, 96 h; HCV 1b replicon, luciferase, 4 days incubation; read-out: EC50_1b
From the text: Cell-Based Luciferase Reporter HCV (Ib) RNA Replication Assay Cell Culture
Replicon cell lines Huh-5.2 are derived from the Huh-7 hepatocarcinoma cell line are maintained in culture as generally described in Krieger, N; Lohmann, V; Bartenschlager, R. Enhancement of hepatitis C virus RNA replication by cell culture-adaptive mutations. J. Virol. 2001, 75, 4614-4624. The Huh-5.2 cells contain the highly cell culture-adapted replicon I389luc-ubi-neo/NS3-375.1 construct that carries, in addition to the neomycin gene, an integrated copy to the firefly luciferase gene (Krieger, N; Lohmann, V; Bartenschlager, R. Enhancement of hepatitis C virus RNA replication by cell culture-adaptive mutations. J. Virol. 2001, 75, 4614-4624). This cell line allows measurement of HCV RNA replication and translation by measuring luciferase activity. It has been previously shown that the luciferase activity tightly follows the replicon RNA level in these cells (Krieger, N; Lohmann, V; Bartenschlager, R. Enhancement of hepatitis C virus RNA replication by cell culture-adaptive mutations. J. Virol. 2001, 75, 4614-4624). The Huh-ET cell line has the same features as those mentioned for Huh-5.2 cell line, except that ET cells are more robust and contain an adaptative mutation in the HCV NS4B gene instead of NS5A. Both cell lines are maintained in cultures at a sub-confluent level (<85%) as the level of replicon RNA is highest in actively proliferating cells. The culture media used for cell passaging consist of DMEM (Gibco BRL Laboratories, Mississauga, ON, Canada) supplemented with 10% foetal bovine serum with 1% penicilin/streptomycin, 1% glutamine, 1% sodium pyruvate, 1% non-essential amino acids, and 180 μg/ml of G418 final concentration. Cells are incubated at 37° C., in an atmosphere of 5% CO2 and passaged twice a week to maintain sub-confluence.
Approximately 3000 viable Huh-ET cells (100 μl) are plated per well in a white opaque 96-well microtiter plate. The cell culture media used for the assay is the same as described above except that it contains no G418 and no phenol red. After an incubation period of 3-4 hours at 37° C. in a 5% CO2 incubator, compounds (100 μl) are added at various concentrations. Cells are then further incubated for 4 days at 37° C. in a 5% CO2 incubator. Thereafter, the culture media is removed and cells are lysed by the addition of 95 μL of the luciferase buffer (luciferin substrate in buffered detergent). Cell lysates are incubated at room temperature and protected from direct light for at least 10 minutes. Plates are read for luciferase counts using a luminometer (Wallac MicroBeta Trilux, Perkin Elmer™, MA, USA).
Curves are fitted to data points using nonlinear regression analysis, and IC50s are interpolated from the resulting curve using GraphPad Prism software, version 2.0 (GraphPad Software Inc., San Diego, Calif., USA).

Structure (SMILES) | pEC50
COC(=O)N[C@H](C(=O)N1CCC[C@H]1c1ncc(-c2ccc(-c3ccc(-c4ccc5[nH]c([C@@H]6CCCN6C(=O)[C@@H](NC(=O)OC)C(C)C)nc5c4)cc3)cc2)[nH]1)C(C)C [Compound 4, ((S)-1-{(S)-2-[5-(4′-{2-[(S)-1-((S)-2-Methoxycarbonylamino-3-methyl-butyryl)-pyrrolidin-2-yl]-3H-benzoimidazol-5-yl}-biphenyl-4-yl)-1H-imidazol-2-yl]-pyrrolidine-1-carbonyl}-2-methyl-propyl)-carbamic acid methyl ester] | ≥ 8.30
COC(=O)N[C@H](C(=O)N1C[C@@H](C)CC1c1nc2cc(C#Cc3ccc(C#Cc4cnc([C@@H]5C[C@H](C)CN5C(=O)[C@@H](NC(=O)OC)C(C)C)[nH]4)cc3)ccc2[nH]1)C(C)C (stereo partly shown) [Compound 29] | ≥ 8.30
COC(=O)N[C@H](C(=O)N1C[C@@H](C)C[C@H]1c1nc(-c2ccc(-c3ccc(-c4ccc5[nH]c([C@@H]6C[C@H](C)CN6C(=O)[C@@H](NC(=O)OC)C(C)C)nc5c4)c4c3OCO4)cc2)c[nH]1)C(C)C [Compound 30] | ≥ 8.30
COC(=O)N[C@H](C(=O)N1C[C@@H](C)C[C@H]1c1ncc(-c2ccc(-c3ccc(-c4ccc5[nH]c([C@@H]6C[C@H](C)CN6C(=O)[C@@H](NC(=O)OC)C(C)C)nc5c4)c(C)c3)cc2C)[nH]1)C(C)C [Compound 31] | ≥ 8.30
COC(=O)N[C@H](C(=O)N1C[C@@H](C)C[C@H]1c1nc(-c2ccc(-c3ccc(-c4cc(F)c5[nH]c([C@@H]6C[C@H](C)CN6C(=O)[C@@H](NC(=O)OC)C(C)C)nc5c4)cc3)cc2)c[nH]1)C(C)C [Compound 32] | ≥ 8.30
COC(=O)N[C@H](C(=O)N1C[C@@H](C)C[C@H]1c1nc(-c2ccc3sc(-c4ccc5[nH]c([C@@H]6C[C@H](C)CN6C(=O)[C@@H](NC(=O)OC)C(C)C)nc5c4)cc3c2)c[nH]1)C(C)C [Compound 33] | ≥ 8.30
COC(=O)N[C@H](C(=O)N1C[C@@H](C)C[C@H]1c1nc(-c2ccc3nc(-c4ccc5[nH]c([C@@H]6C[C@H](C)CN6C(=O)[C@@H](NC(=O)OC)C(C)C)nc5c4)ccc3c2)c[nH]1)C(C)C [Compound 34] | ≥ 8.30
COC(=O)N[C@H](C(=O)N1C[C@@H](C)C[C@H]1c1nc(-c2ccc(-c3ccc(-c4cc5nc([C@@H]6C[C@H](C)CN6C(=O)[C@@H](NC(=O)OC)C(C)C)[nH]c5cc4C)cc3)cc2)c[nH]1)C(C)C [Compound 35] | ≥ 8.30
COC(=O)N[C@H](C(=O)N1C[C@@H](C)C[C@H]1c1nc(-c2ccc(-c3ccc(-c4ccc5[nH]c([C@@H]6C[C@H](C)CN6C(=O)[C@@H](NC(=O)OC)C(C)C)nc5c4)cc3F)cc2)c[nH]1)C(C)C [Compound 39] | ≥ 8.30
COC(=O)N[C@H](C(=O)N1C[C@@H](C)C[C@H]1c1nc(-c2cc3sc(-c4ccc5[nH]c([C@@H]6C[C@H](C)CN6C(=O)[C@H](C(C)C)N6CCOC6=O)nc5c4)cc3s2)c[nH]1)C(C)C [Compound 40] | ≥ 8.30
COC(=O)N[C@H](C(=O)N1C[C@@H](C)C[C@H]1c1nc(-c2ccc3cc(-c4ccc5[nH]c([C@@H]6C[C@H](C)CN6C(=O)[C@@H](NC(=O)OC)C(C)C)nc5c4)sc3c2)c[nH]1)C(C)C [Compound 41] | ≥ 8.30
COC(=O)N[C@H](C(=O)N1C[C@@H](C)CC1c1nc2cc(-c3ccc4nc(-c5c[nH]c([C@@H]6C[C@H](C)CN6C(=O)[C@@H](NC(=O)OC)C(C)C)n5)cn4c3)ccc2[nH]1)C(C)C (stereo partly shown) [Compound 42] | 5.30 to 8.30
COC(=O)N[C@H](C(=O)N1C[C@@H](C)C[C@H]1c1nc(-c2cc3cc(-c4ccc5[nH]c([C@@H]6C[C@H](C)CN6C(=O)[C@@H](NC(=O)OC)C(C)C)nc5c4)sc3s2)c[nH]1)C(C)C [Compound 43] | ≥ 8.30
COC(=O)N[C@H](C(=O)N1C[C@@H](C)C[C@H]1c1nc(C#Cc2cc3sc(-c4ccc5[nH]c([C@@H]6C[C@H](C)CN6C(=O)[C@@H](NC(=O)OC)C(C)C)nc5c4)cc3s2)c[nH]1)C(C)C [Compound 44] | ≥ 8.30
COC(=O)NC(C(=O)N1C[C@@H](C)C[C@H]1c1nc2cc(C#Cc3cc4sc(-c5c[nH]c([C@@H]6C[C@H](C)CN6C(=O)[C@@H](NC(=O)OC)C(C)C)n5)cc4s3)ccc2[nH]1)C(C)C (stereo partly shown) [Compound 45] | ≥ 8.30
COC(=O)N[C@H](C(=O)N1C[C@H](C)C[C@H]1c1nc(-c2ccc(-c3ccc(-c4ccc5[nH]c([C@@H]6C[C@H](C)CN6C(=O)[C@@H](NC(=O)OC)C(C)C)nc5c4)cc3)cc2)c[nH]1)C(C)C [Compound 47] | ≥ 8.30
COC(=O)N[C@H](C(=O)N1C[C@@H](C)C[C@H]1c1nc2cc(-c3ccc(-c4ccc(-c5c[nH]c([C@@H]6C[C@H](C)CN6)n5)cc4)cc3)ccc2[nH]1)C(C)C [Compound 51] | ≥ 8.30
[2H]c1c([2H])c(-c2ccc3[nH]c([C@@H]4C[C@H](C)CN4C(=O)[C@@H](NC(=O)OC)C(C)C)nc3c2)c([2H])c([2H])c1-c1ccc(-c2c[nH]c([C@@H]3C[C@H](C)CN3C(=O)[C@@H](NC(=O)OC)C(C)C)n2)cc1 [Compound 52] | ≥ 8.30
COC(=O)N[C@H](C(=O)N[C@H](C(=O)N1C[C@@H](C)C[C@H]1c1nc(-c2ccc(-c3ccc(-c4ccc5[nH]c([C@@H]6C[C@H](C)CN6C(=O)[C@@H](NC(=O)OC)C(C)C)nc5c4)cc3)cc2)c[nH]1)C(C)C)C(C)C [Compound 55] | ≥ 8.30
COC(=O)N[C@H](C(=O)N[C@H](C(=O)N1C[C@@H](C)C[C@H]1c1nc2cc(-c3ccc(-c4ccc(-c5c[nH]c([C@@H]6C[C@H](C)CN6C(=O)[C@@H](NC(=O)OC)C(C)C)n5)cc4)cc3)ccc2[nH]1)C(C)C)C(C)C [Compound 56] | ≥ 8.30

Same assay, conditions: Hepatitis C virus; sub-genomic replicon 1b cell line

Structure (SMILES) | IC50 [pM]
COC(=O)N[C@H](C(=O)N1CCC[C@H]1c1ncc(-c2ccc(-c3ccc(-c4ccc5[nH]c([C@@H]6CCCN6C(=O)[C@@H](NC(=O)OC)C(C)C)nc5c4)cc3)cc2)[nH]1)C(C)C [Compound 4, ((S)-1-{(S)-2-[5-(4′-{2-[(S)-1-((S)-2-Methoxycarbonylamino-3-methyl-butyryl)-pyrrolidin-2-yl]-3H-benzoimidazol-5-yl}-biphenyl-4-yl)-1H-imidazol-2-yl]-pyrrolidine-1-carbonyl}-2-methyl-propyl)-carbamic acid methyl ester] | 13
